Laboratory results as given in US7385026B1, “Modified ghrelin polypeptides” (priority 1999, dated 2008).
Several values for one entry are separate records, joined by “and”; a condition that tells them apart may be missing. Identical values can stand only once. Like-named read-outs stand apart in the source and are kept apart here. Square brackets hold non-standard residues; d marks the D form. Peptide text beside a SMILES is read from it. * marks the point of attachment. d2Nal = N[C@H](Cc1ccc2ccccc2c1)C(=O)O; Octanoyl = CCCCCCCC(=O)*; Aib = CC(C)(N)C(=O)O

Experiments:
rat GHS-receptor (GHR-R) = biological target: T1, rat GHS-receptor (GHR-R) (Rattus norvegicus, UniProt O08725); assay: Ca-releasing activity (increase in intracellular calcium) in CHO-GHSR62 cells, FLIPR; assay type: cell-based
T1 construct: A full-length cDNA for rat GHR-R was obtained by RT-PCR; expressed in transfected cells
In short: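 CHO cells stably expressing full-length rat GHS-R (CHO-GHSR62) were cultured 12–15 h, loaded with 4 μM Fluo4 for 1 h and washed with Hank's BSS containing 20 mM Hepes and 2.5 mM probenecid. Ca-releasing activity of ghrelin peptides, fragments or derivatives was read by FLIPR as the fluorescence change after sample addition.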

IGS-SD strain rats = assay: GH-releasing activity of long-chain ghrelin derivatives in rat (plasma GH 15 min after i.v.); assay type: in vivo; conditions: for GH level in plasma in 15 min. after administration, M ± S.D.: n=3; for GH level in plasma in 15 min. after administration, individual rats (Rat 1-3): rats under Nembutal; for GH-releasing activity (in words): i.v., plasma GH at 15 minutes
Experimental: Fifteen minutes after administration, plasma was collected, and the concentration of GH in plasma was measured by radioimmunoassay (Biotrak/Amersham). Separately, 0.2% bovine serum albumin (BSA)-physiological saline, 6 nmol/kg rGhrelin and hGhrelin, or 80 nmol/kg Ipamorelin (Compound 80) was administered into other rats as the control, respectively, and the concentrations of GH in plasma in 15 minutes after administration were compared (for each sample, n=3).

[1] = test system: amino-terminal antibody (anti-[C-Cys]-rat ghrelin [1-11] antigen); assay: Radioimmunoassay: inhibition of binding of labeled rat ghrelin to amino-terminal antibody; set-up: species or system rabbit
[2] = CHO-GHSR62 cells (CHO cells expressing rat GHS receptor), FLIPR, read-out: Ca-releasing activity EC50

T1 sequence (O08725 whole entry): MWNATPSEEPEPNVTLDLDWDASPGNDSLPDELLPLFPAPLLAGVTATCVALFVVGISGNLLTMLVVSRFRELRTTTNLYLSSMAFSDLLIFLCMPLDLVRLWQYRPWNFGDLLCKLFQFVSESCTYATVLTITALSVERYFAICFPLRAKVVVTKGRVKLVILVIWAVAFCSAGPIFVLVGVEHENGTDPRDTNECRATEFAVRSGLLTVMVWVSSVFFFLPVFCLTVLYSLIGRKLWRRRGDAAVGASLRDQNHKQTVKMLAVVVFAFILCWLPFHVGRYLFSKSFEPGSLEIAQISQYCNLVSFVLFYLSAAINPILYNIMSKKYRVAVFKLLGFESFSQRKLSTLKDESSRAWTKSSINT

CC(C)(N)C(=O)N[C@@H](Cc1c[nH]cn1)C(=O)N[C@H](Cc1ccc2ccccc2c1)C(=O)N[C@H](Cc1ccccc1)C(=O)N[C@@H](CCCCN)C(N)=O [Compound 80, [Aib^1, His^2, ^DNal^3, ^DPhe^4, Lys^5]-Ghrelin (1-5)-amide, reference compound] (H-[Aib]H[d2Nal][dF]K-NH2)
EC50 (rat GHS-receptor (GHR-R); [2]): 2.5 nM | GH level in plasma in 15 min. after administration, M ± S.D. (IGS-SD strain rats; dose 80 nmol/kg i.v.): 607 ± 503 ng/mL | GH level in plasma in 15 min. after administration, individual rats (Rat 1-3) (IGS-SD strain rats; dose 80 nmol/kg i.v., listed as Ipamorelin): 377 ng/mL and 260 ng/mL and 1184 ng/mL

CCCCCCCCCC(=O)OC[C@H](NC(=O)[C@H](CO)NC(=O)CN)C(=O)N[C@@H](Cc1ccccc1)C(=O)N[C@@H](CC(C)C)C(=O)N[C@@H](CO)C(=O)N1CCC[C@H]1C(=O)N[C@@H](CCC(=O)O)C(=O)N[C@@H](Cc1c[nH]cn1)C(=O)N[C@@H](CCC(N)=O)C(=O)N[C@@H](CCCCN)C(=O)N[C@@H](C)C(=O)N[C@@H](CCC(N)=O)C(=O)N[C@@H](CCC(N)=O)C(=O)N[C@@H](CCCNC(=N)N)C(=O)N[C@@H](CCCCN)C(=O)N[C@@H](CCC(=O)O)C(=O)N[C@@H](CO)C(=O)N[C@@H](CCCCN)C(=O)N[C@@H](CCCCN)C(=O)N1CCC[C@H]1C(=O)N1CCC[C@H]1C(=O)N[C@@H](C)C(=O)N[C@@H](CCCCN)C(=O)N[C@@H](CC(C)C)C(=O)N[C@@H](CCC(N)=O)C(=O)N1CCC[C@H]1C(=O)N[C@@H](CCCNC(=N)N)C(=O)O [Compound 12, [Ser^3(Decanoyl)]-rGhrelin]
EC50 (rat GHS-receptor (GHR-R); [2]): 1.7 nM | EC50 (rat GHS-receptor (GHR-R); Table 3, Example 9: protease fragments or synthetic peptides, CHO-GHSR62 cells, read-out: Ca-releasing activity (EC50)): 2.6 nM | cross-reactivity with the amino-terminal antibody [1]: 20%

CC(C)C[C@H](NC(=O)[C@H](CCCCN)NC(=O)[C@H](C)NC(=O)[C@@H]1CCCN1C(=O)[C@@H]1CCCN1C(=O)[C@H](CCCCN)NC(=O)[C@H](CCCCN)NC(=O)[C@H](CO)NC(=O)[C@H](CCC(=O)O)NC(=O)[C@H](CCCCN)NC(=O)[C@H](CCCNC(=N)N)NC(=O)[C@H](CCC(N)=O)NC(=O)[C@H](CCC(N)=O)NC(=O)[C@@H](NC(=O)[C@H](CCCNC(=N)N)NC(=O)[C@H](CCC(N)=O)NC(=O)[C@H](Cc1c[nH]cn1)NC(=O)[C@H](CCC(=O)O)NC(=O)[C@@H]1CCCN1C(=O)[C@H](CO)NC(=O)[C@H](CC(C)C)NC(=O)[C@H](Cc1ccccc1)NC(=O)[C@H](Cc1ccc2ccccc2c1)NC(=O)[C@H](CO)NC(=O)CN)C(C)C)C(=O)N[C@@H](CCC(N)=O)C(=O)N1CCC[C@H]1C(=O)N[C@@H](CCCNC(=N)N)C(=O)O [Compound 65, [2-^LNal^3]-hGhrelin]
EC50 (rat GHS-receptor (GHR-R); [2]): 8.2 nM | GH level in plasma in 15 min. after administration, M ± S.D. (IGS-SD strain rats; dose 100 nmol/kg i.v.): 1524 ± 147 ng/mL | GH level in plasma in 15 min. after administration, individual rats (Rat 1-3) (IGS-SD strain rats; dose 100 nmol/kg i.v.): 1637 ng/mL and 1576 ng/mL and 1357 ng/mL

CCCCCCCCOC[C@H](NC(=O)[C@H](CO)NC(=O)CN)C(=O)N[C@@H](Cc1ccccc1)C(=O)N[C@@H](CC(C)C)C(=O)N[C@@H](CO)C(=O)N1CCC[C@H]1C(=O)N[C@@H](CCC(=O)O)C(=O)N[C@@H](Cc1c[nH]cn1)C(=O)N[C@@H](CCC(N)=O)C(=O)N[C@@H](CCCNC(=N)N)C(=O)N[C@H](C(=O)N[C@@H](CCC(N)=O)C(=O)N[C@@H](CCC(N)=O)C(=O)N[C@@H](CCCNC(=N)N)C(=O)N[C@@H](CCCCN)C(=O)N[C@@H](CCC(=O)O)C(=O)N[C@@H](CO)C(=O)N[C@@H](CCCCN)C(=O)N[C@@H](CCCCN)C(=O)N1CCC[C@H]1C(=O)N1CCC[C@H]1C(=O)N[C@@H](C)C(=O)N[C@@H](CCCCN)C(=O)N[C@@H](CC(C)C)C(=O)N[C@@H](CCC(N)=O)C(=O)N1CCC[C@H]1C(=O)N[C@@H](CCCNC(=N)N)C(=O)O)C(C)C [Compound 17, [Ser^3(Octyl)]-hGhrelin]
EC50 (rat GHS-receptor (GHR-R); [2]): 1.2 nM | GH level in plasma in 15 min. after administration, M ± S.D. (IGS-SD strain rats; dose 18 nmol/kg i.v.): 1657 ± 75 ng/mL | GH level in plasma in 15 min. after administration, individual rats (Rat 1-3) (IGS-SD strain rats; dose 18 nmol/kg i.v.): 1626 ng/mL and 1602 ng/mL and 1743 ng/mL | GH-releasing activity (in words) (IGS-SD strain rats): strong GH-releasing activity

CC(C)C[C@H](NC(=O)[C@H](CCCCN)NC(=O)[C@H](C)NC(=O)[C@@H]1CCCN1C(=O)[C@@H]1CCCN1C(=O)[C@H](CCCCN)NC(=O)[C@H](CCCCN)NC(=O)[C@H](CO)NC(=O)[C@H](CCC(=O)O)NC(=O)[C@H](CCCCN)NC(=O)[C@H](CCCNC(=N)N)NC(=O)[C@H](CCC(N)=O)NC(=O)[C@H](CCC(N)=O)NC(=O)[C@@H](NC(=O)[C@H](CCCNC(=N)N)NC(=O)[C@H](CCC(N)=O)NC(=O)[C@H](Cc1c[nH]cn1)NC(=O)[C@H](CCC(=O)O)NC(=O)[C@@H]1CCCN1C(=O)[C@H](CO)NC(=O)[C@H](CC(C)C)NC(=O)[C@H](Cc1ccccc1)NC(=O)[C@H](CC1CCCCC1)NC(=O)[C@H](CO)NC(=O)CN)C(C)C)C(=O)N[C@@H](CCC(N)=O)C(=O)N1CCC[C@H]1C(=O)N[C@@H](CCCNC(=N)N)C(=O)O [Compound 64, [Cha^3]-hGhrelin]
EC50 (rat GHS-receptor (GHR-R); [2]): 19 nM

CC(C)C[C@H](NC(=O)[C@H](CCCCN)NC(=O)[C@H](C)NC(=O)[C@@H]1CCCN1C(=O)[C@@H]1CCCN1C(=O)[C@H](CCCCN)NC(=O)[C@H](CCCCN)NC(=O)[C@H](CO)NC(=O)[C@H](CCC(=O)O)NC(=O)[C@H](CCCCN)NC(=O)[C@H](CCCNC(=N)N)NC(=O)[C@H](CCC(N)=O)NC(=O)[C@H](CCC(N)=O)NC(=O)[C@@H](NC(=O)[C@H](CCCNC(=N)N)NC(=O)[C@H](CCC(N)=O)NC(=O)[C@H](Cc1c[nH]cn1)NC(=O)[C@H](CCC(=O)O)NC(=O)[C@@H]1CCCN1C(=O)[C@H](CO)NC(=O)[C@H](CC(C)C)NC(=O)[C@H](Cc1ccccc1)NC(=O)[C@H](COC(=O)CCc1ccccc1)NC(=O)[C@H](CO)NC(=O)CN)C(C)C)C(=O)N[C@@H](CCC(N)=O)C(=O)N1CCC[C@H]1C(=O)N[C@@H](CCCNC(=N)N)C(=O)O [Compound 15, [Ser^3(3-Phenylpropionyl)]-hGhrelin]
EC50 (rat GHS-receptor (GHR-R); [2]): 1.4 nM | GH level in plasma in 15 min. after administration, M ± S.D. (IGS-SD strain rats; dose 18 nmol/kg i.v.): 1926 ± 299 ng/mL | GH level in plasma in 15 min. after administration, individual rats (Rat 1-3) (IGS-SD strain rats; dose 18 nmol/kg i.v., listed as [Ser^3(Phenylpropionyl)]-hGhrelin): 2119 ng/mL and 2078 ng/mL and 1581 ng/mL | GH-releasing activity (in words) (IGS-SD strain rats): strong GH-releasing activity

CCCCCCCC(=O)OC[C@H](NC(=O)[C@H](CO)NC(=O)CN)C(=O)N[C@@H](Cc1ccccc1)C(=O)N[C@@H](CC(C)C)C(=O)N[C@@H](CO)C(=O)N[C@@H](CCCCN)C(N)=O [Compound 75, [Lys^7]-Ghrelin (1-7)-amide] (H-GSS(Octanoyl)FLSK-NH2)
EC50 (rat GHS-receptor (GHR-R); [2]): 11 nM

CCCCCCCC(=O)O [n-octanoic acid, reference compound]
Ca-releasing activity (in words) (rat GHS-receptor (GHR-R); CHO-GHSR62 cells): did not show a significant Ca-releasing activity

CC(C)CCC(=O)OC[C@H](NC(=O)[C@H](CO)NC(=O)CN)C(=O)N[C@@H](Cc1ccccc1)C(=O)N[C@@H](CC(C)C)C(=O)N[C@@H](CO)C(=O)N1CCC[C@H]1C(=O)N[C@@H](CCC(=O)O)C(=O)N[C@@H](Cc1c[nH]cn1)C(=O)N[C@@H](CCC(N)=O)C(=O)N[C@@H](CCCNC(=N)N)C(=O)N[C@H](C(=O)N[C@@H](CCC(N)=O)C(=O)N[C@@H](CCC(N)=O)C(=O)N[C@@H](CCCNC(=N)N)C(=O)N[C@@H](CCCCN)C(=O)N[C@@H](CCC(=O)O)C(=O)N[C@@H](CO)C(=O)N[C@@H](CCCCN)C(=O)N[C@@H](CCCCN)C(=O)N1CCC[C@H]1C(=O)N1CCC[C@H]1C(=O)N[C@@H](C)C(=O)N[C@@H](CCCCN)C(=O)N[C@@H](CC(C)C)C(=O)N[C@@H](CCC(N)=O)C(=O)N1CCC[C@H]1C(=O)N[C@@H](CCCNC(=N)N)C(=O)O)C(C)C [Compound 69, [Ser^3(4-Methylpentanoyl)]-hGhrelin]
EC50 (rat GHS-receptor (GHR-R); [2]): 4.4 nM
